Data from PMC9826610 (Journal of medicinal chemistry, 2022).
Values after ≈ are worked out from the molar mass of the structure shown. Where two headings read alike, the source gives them in different places.

Key:
[1] = system: methicillin-resistant S. aureus (FPR3757); assay: MIC against methicillin-resistant S. aureus; format: cell-based, Staphylococcus aureus; details: for MIC: complete inhibition of observable growth, Mueller–Hinton broth
S. aureus (strain COL) = assay: Fluorescence microscopy of membrane, cell wall and DNA in MRSA; format: cell-based; details: 1× MIC, 30 min
[2] = system: S. aureus (strain USA300); assay: Transmission electron microscopy of treated MRSA; format: cell-based; details: 1× MIC
[3] = Kinetic aqueous solubility by LC-MS/MS; details: pH 7.4
C. albicans = assay: Antimicrobial susceptibility panel: MIC against C. albicans; format: cell-based; details: Candida albicans, SC5314
MRSA = MRSA MIC in the presence of serum; format: cell-based; details: Staphylococcus aureus
[4] = Single-dose in vivo pharmacokinetics; details: mice
sheep erythrocytes = details: washed sheep erythrocytes; at 32 μg/mL; compared to Triton X-100 (100% lysis)

Structure (SMILES)	MIC ([1]; Staphylococcus aureus)	further results
Fc1ccc2c(Nc3ccc(Cl)c(Cl)c3)cc(C(F)(F)F)nc2c1 [Compound 74]	0.5 to 2 µg/mL (≈ 1.33 to 5.33 µM)	
FC(F)(F)Oc1ccc2c(Nc3ccc(C(F)(F)F)cn3)cc(C(F)(F)F)nc2c1 [Compound 34]	0.5 to 1 µg/mL (≈ 1.13 to 2.27 µM)	
O=c1cc(C(F)(F)F)[nH]c2cc(F)cc(Nc3ccc(C(F)(F)F)cn3)c12 [Compound 122]		FM 4–64 membrane staining by fluorescence microscopy (S. aureus (strain COL)): membrane defects
CCc1ccc2c(O)cc(C(F)(F)F)nc2c1 [Compound 8]	320 to 640 µg/mL (≈ 1330 to 2650 µM)	
O=c1cc(C(F)(F)F)[nH]c2cc(C(F)(F)F)cc(N[C@H]3CC[C@H](C(F)(F)F)CC3)c12 [Compound 120]		cell morphology by TEM [2]: mesosome-like membrane inclusions; FM 4–64 membrane staining by fluorescence microscopy (S. aureus (strain COL)): membrane defects
O=c1cc(C(F)(F)F)[nH]c2cc(C(F)(F)F)cc(Nc3ccc(C(F)(F)F)cn3)c12 [Compound 111, 5-[(5-Trifluoromethylpyridin-2-yl)amino]-2,7-bis-(trifluoromethyl)quinolin-4(1H)-one]		solubility at 6 h [3]: 2.4 ± 0.4 ng/mL (≈ 0.00544 µM); MIC (C. albicans): 256 µg/mL (≈ 580 µM); MIC (MRSA; read-out: MIC + 10% human serum): 4 to 8 µg/mL; MIC (MRSA; read-out: MIC + 10% mouse serum): 4 to 8 µg/mL; MIC (MRSA; read-out: MIC + 30% FBS): 4 to 8 µg/mL; time total plasma concentrations stay above the MIC (<0.0625 μg/mL) ([4]; following i.v. dosing at 0.5 mg/kg): ~9 h; time total plasma concentrations stay above the MIC (<0.0625 μg/mL) ([4]; following oral dosing at 10 mg/kg): ~9 h; cell morphology by TEM [2]: mesosome-like membrane inclusions; hemolysis (sheep erythrocytes): devoid of hemolytic activity
Fc1ccc(Nc2nc(C(F)(F)F)nc3nc(C(F)(F)F)ccc23)cc1F [Compound 94, N-(3,4-Difluorophenyl)-2,7-bis(trifluoromethyl)pyrido[2,3-d]-pyrimidin-4-amine]	≥ 32 µg/mL	
FC(F)(F)c1ccc(Nc2cc(C(F)(F)F)nc3cc(C(F)(F)F)ccc23)nc1 [Compound 31, 2,7-Bis(trifluoromethyl)-4-[5-(trifluoromethyl)pyridin-2-yl-amino]quinoline]		MIC (MRSA; read-out: MIC + 10% FBS): 4 to 8 µg/mL; cell morphology by TEM [2]: mesosome-like membrane inclusions
FC(F)(F)Oc1cccc(Nc2cc(C(F)(F)F)nc3cc(OC(F)(F)F)ccc23)c1 [Compound 33]	0.5 to 1 µg/mL (≈ 1.1 to 2.19 µM)	
Fc1cccc(Nc2cc(C(F)(F)F)nc3cc(C(F)(F)F)ccc23)c1 [Compound 18]	4 to 16 µg/mL (≈ 10.7 to 42.8 µM)	
Fc1ccc2c(Nc3ccc(C(F)(F)F)cn3)cc(C(F)(F)F)nc2c1 [Compound 76]	0.5 to 2 µg/mL (≈ 1.33 to 5.33 µM)	
FC(F)(F)c1ccc2c(Nc3nccs3)cc(C(F)(F)F)nc2c1 [Compound 55]	1 to 2 µg/mL (≈ 2.75 to 5.51 µM)	
FC(F)(F)c1ccc2c(Nc3cccc(Cl)c3)cc(C(F)(F)F)nc2c1 [Compound 16]	0.125 to 0.25 µg/mL (≈ 0.32 to 0.64 µM)	
FC(F)(F)c1ccc2c(Nc3ccc(Cl)cc3)cc(C(F)(F)F)nc2c1 [Compound 17]	0.125 to 0.25 µg/mL (≈ 0.32 to 0.64 µM)	
FC(F)(F)c1ccc(Nc2cc(N3CCNCC3)c3ccc(C(F)(F)F)cc3n2)nc1 [Compound 106]	4 to 8 µg/mL (≈ 9.06 to 18.1 µM)	
FC(F)(F)Oc1ccc2c(Nc3ccc(Cl)c(Cl)c3)cc(C(F)(F)F)nc2c1 [Compound 32]	0.5 to 1 µg/mL (≈ 1.13 to 2.27 µM)	
FC(F)(F)c1ccc2c(Nc3cc(Cl)ccn3)cc(C(F)(F)F)nc2c1 [Compound 48]		loss of activity (MIC) relative to 31 [1]: 8 fold
Oc1cc(C(F)(F)F)nc2cc(OC(F)(F)F)ccc12 [Compound 3]	4 to 8 µg/mL (≈ 13.5 to 26.9 µM)	
O=c1cc(C(F)(F)F)[nH]c2cc(C(F)(F)F)cc(Nc3ccc(F)cn3)c12 [Compound 114]	0.125 to 2 µg/mL (≈ 0.319 to 5.11 µM)	
CSc1cccc(Nc2cc(C(F)(F)F)nc3cc(C(F)(F)F)ccc23)c1 [Compound 24]	0.25 to 0.5 µg/mL (≈ 0.621 to 1.24 µM)	
Fc1ccc2nc(C(F)(F)F)cc(Nc3ccc(C(F)(F)F)cn3)c2c1F [Compound 77]	16 to 32 µg/mL (≈ 40.7 to 81.4 µM)	
FC(F)(F)c1ccc(Nc2cc(N3CCOCC3)c3ccc(C(F)(F)F)cc3n2)nc1 [Compound 108]	4 to 8 µg/mL (≈ 9.04 to 18.1 µM)	
Oc1cc(C(F)(F)F)nc2c(C(F)(F)F)cccc12 [Compound 4]	2 to 4 µg/mL (≈ 7.11 to 14.2 µM)	
CSc1ccc2c(O)cc(C(F)(F)F)nc2c1 [Compound 10]	320 to 640 µg/mL (≈ 1230 to 2470 µM)	
O=c1cc(C(F)(F)F)[nH]c2cc(C(F)(F)F)ccc12 [Compound 2, 2,7-Bis-(trifluoromethyl)quinolin-4-ol]	4 to 8 µg/mL (≈ 14.2 to 28.5 µM)	
FC(F)(F)c1ccc(Nc2cc(N3CCNCC3)nc3cc(C(F)(F)F)ccc23)nc1 [Compound 105, 2-(Piperazin-1-yl)-7-(trifluoromethyl)-4-{[5-(trifluoro-methyl)-pyridin-2-yl]amino}quinoline]	0.5 to 1 µg/mL (≈ 1.13 to 2.27 µM)	MIC [1]: 0.5 to 1 µg/mL
Fc1ccc(Nc2cc(C(F)(F)F)nc3cc(C(F)(F)F)ccc23)cc1F [Compound 21]	0.125 to 0.25 µg/mL (≈ 0.319 to 0.637 µM)	
COc1ccc2c(O)cc(C(F)(F)F)nc2c1 [Compound 9]	320 to 640 µg/mL (≈ 1320 to 2630 µM)	
FC(F)(F)c1ccc2c(Nc3ccc(C(F)(F)F)nc3)cc(C(F)(F)F)nc2c1 [Compound 49]		MIC [1]: completely abolished activity
Fc1cc2nc(C(F)(F)F)cc(Nc3ccc(C(F)(F)F)cn3)c2cc1F [Compound 78]		hemolysis (sheep erythrocytes): hemolysis
